Measured values taken from article PMC11358582, “Discovery of a potential bladder cancer inhibitor CHNQD-01281 by regulating EGFR and promoting infiltration of cytotoxic T cells” (Marine Life Science & Technology, 2024).

Tests used:
Hela cells = assay: MTT cell proliferation assay; type: cell-based, human
Method: (§1) Human tumor cell lines Eca-109, BEL-7402, BxPC-3, HCT-116, HT-29, T24, HCT-8, SGC-7901, DLD-1, TE-1, BT-549, MGC-803 and human hepatocyte cell line L-02 were cultured in Roswell Park Memorial Institute (RPMI) 1640. HuH-7 and SW-480 were cultured in Dulbecco’s modified Eagle’s medium (DMEM). J82, HepG2, Hela, U87 were cultured in Minimum Essential Medium (MEM). Murine bladder cancer cell line, MB49, was cultured in DMEM. The above-mentioned culture medium was provided by GIBCO (Grand Island, USA), contained 10% fetal bovine serum (PAN, Germany), 10 mg/mL of streptomycin, and 10 kU/mL penicillin (Beyotime, China).
(§2) Cells were seeded in 96-well plates and incubated with indicated concentrations of CHNQD-01281 for indicated periods. Next, medium was discarded and MTT (5 mg/mL) was added to each well. The cells were incubated at 37 °C for another 4 h. After that, supernatant was discarded, and DMSO was added and incubated at 37 °C for 15 min. Finally, absorbance was measured at 570 nm (Molecular Devices, USA).
(§3) To investigate whether CHNQD-01281 had selective inhibitory effect on cancer cell lines, a variety of human tumor cell lines were assayed by MTT, such as bladder cancer cell lines (J82 and T24), colorectal cancer cell lines (HCT-116, HT-29, HCT-8, DLD-1 and SW-480), cervical cancer cell line (Hela), esophageal cancer cell lines (TE-1 and Eca-109), breast cancer cell line (BT-549), gastric carcinoma cell lines (MGC-803 and SGC-7901), glioma cell line (U87), pancreatic carcinoma cell line (BxPC-3) and hepatocellular carcinoma cell lines (Hep G2, BEL-7402 and HuH-7) (Fig. 2A).

BEL-7402 cells = assay: MTT cell proliferation assay; type: cell-based, human
Method: as §1, §2, §3

T24 cells = assay: MTT cell proliferation assay; type: cell-based, human
Method: as §1, §2, §3

BT-549 cells = assay: MTT cell proliferation assay; type: cell-based, human
Method: as §1, §2, §3

HuH-7 cells = assay: MTT cell proliferation assay; type: cell-based, human
Method: as §1, §2, §3

J82 cells = assay: MTT cell proliferation assay; type: cell-based, human
Method: as §1, §2, §3

SGC-7901 cells = assay: MTT cell proliferation assay; type: cell-based, human
Method: as §1, §2, §3

T24 xenograft = assay: T24 nude mice xenograft model; type: in vivo, BALB/c-nu mice; details: for reduction of Ki67 expression level (IHC): tumor tissue
Method: Specific pathogen free (SPF)-grade C57BL/6 mice and BALB/c-nu mice were purchased from Jinan Pengyue Experimental Animal Center (license No. SCXK 20190003). The protocol was approved by the Research Review Committee of the Ocean University of China. All mice were housed in 12-h light and 12-h dark conditions in which the humidity was 50% ± 10% and the temperature was 22 ± 2 °C. All mice had free access to food and water. The human bladder cancer cell line T24 was injected subcutaneously into BALB/c-nu mice to construct a xenograft tumor model. The cell suspension of mouse bladder cancer cell line MB49 was injected into C57BL/6 mice subcutaneously to construct a syngeneic tumor model.
Fixed tissues were embedded in paraffin and then sectioned. The specimens were incubated with antibodies against Ki67, CD3, CD4, CD8 (Servicebio, China) and EGFR (ABclonal, China) at 4 °C overnight. The next day, the slides were washed with 1 × PBST three times for 5 min each and stained with the secondary antibodies and Hoechst 33342 dye (Beyotime, China) for 60 min for IF. For IHC staining, the sections were developed with a rabbit/mouse HRP kits (DAB) (Beyotime, China) according to the manufacturer’s instructions.
Therefore, xenograft and homologous tumor models were constructed to further evaluate the antitumor effect of CHNQD-01281 in vivo. The mouse bladder cancer xenograft model was established by the subcutaneous inoculation of the T24 cell line, then CHNQD-01281 was intraperitoneally administrated for two consecutive weeks (Fig. 5A).

p-mTOR/mTOR = assay: Western blot of EGFR downstream proteins; type: cell-based, human; details: 0.16 µmol/L
Method: (§4) T24 and J82 cell lines were lysed in protein lysis buffer, which included phosphatase inhibitors and a cocktail of protease inhibitors. A BCA kit (SparkJade, China) was used to determine the total protein concentration. After protein denaturation, SDS-PAGE electrophoresis was performed and the protein transferred from the gel to a PVDF membrane (Millipore, USA). Then primary antibodies against cleaved caspases-3, cleaved PARP, AKT, phosphorylated AKT, ERK1/2, phosphorylated ERK1/2, EGFR, mTOR, phosphorylated mTOR and Tubulin (CST, USA) were diluted at 1:1000 at 4 °C overnight. The membranes were then washed and incubated with secondary antibodies dissolved in 5% nonfat milk. A chemiluminescence imaging system was used to detect the signals (Tanon, China).
(§5) EGFR is overexpressed in malignant urothelial cells, which is associated with the deterioration, invasiveness and metastasis of tumors. It is a potential therapeutic target for bladder carcinoma. Therefore, we examined the expression of EGFR and its downstream proteins after treating bladder cancer cells with CHNQD-01281 (Supplementary Fig. S11). […] Taken together, CHNQD-01281 inhibited the proliferation of bladder cancer cells and induced apoptosis through EGFR/PI3K/AKT and EGFR/ERK pathways to exert antitumor effects.

p-ERK/ERK = assay: Western blot of EGFR downstream proteins; type: cell-based, human; details: 0.16 µmol/L
Method: as §4, §5

p-AKT/AKT = assay: Western blot of EGFR downstream proteins; type: cell-based, human; details: 0.16 µmol/L
Method: as §4, §5

Q: What does the source list for `C[C@H]1CCC/C=C/[C@@H]2C[C@H](O)C[C@H]2[C@H](OC(=O)/C=C/c2cccnc2)/C=C/C(=O)O1` [CHNQD-01281, Brefeldin A 4-O-3-(pyridin-3-yl) acrylate]?
A: IC90 (Hela cells; Homo sapiens, Hela, MTT): 780 nM; IC50 (Hela cells; Homo sapiens, Hela, MTT, 72 h): 190 nM; SI (selectivity index) (Hela cells; L-02 versus Hela): 6.11; IC90 (BEL-7402 cells; Homo sapiens, BEL-7402, MTT): 820 nM; IC50 (BEL-7402 cells; Homo sapiens, BEL-7402, MTT, 72 h): 260 nM; SI (selectivity index) (BEL-7402 cells; L-02 versus BEL-7402): 4.46; inhibition at 0.125 µM (T24 cells; Homo sapiens, T-24, T24, 0.125 µmol/L, 120 h, read-out: inhibition of growth): ~100%; inhibition at 1 µM (T24 cells; Homo sapiens, T-24, T24, 1 µmol/L (highest concentration), 24 h): < 50%; IC90 (T24 cells; Homo sapiens, T-24, T24, MTT): 300 nM; IC50 (T24 cells; Homo sapiens, T-24, T24, MTT, 72 h): 79 nM; SI (selectivity index) (T24 cells; L-02 versus T24): 14.68; IC90 (BT-549 cells; Homo sapiens, BT-549, MTT): > 1000 nM; IC50 (BT-549 cells; Homo sapiens, BT-549, MTT, 72 h): 640 nM; SI (selectivity index) (BT-549 cells; L-02 versus BT-549): 1.81; IC90 (HuH-7 cells; Homo sapiens, HuH-7, MTT): > 1000 nM; IC50 (HuH-7 cells; Homo sapiens, HuH-7, MTT, 72 h): 510 nM; SI (selectivity index) (HuH-7 cells; L-02 versus HuH-7): 2.27; inhibition at 1 µM (J82 cells; Homo sapiens, J82, 1 µmol/L (highest concentration), 24 h): < 50%; IC90 (J82 cells; Homo sapiens, J82, MTT): 400 nM; IC50 (J82 cells; Homo sapiens, J82, MTT, 72 h): 81 nM; SI (selectivity index) (J82 cells; L-02 versus J82): 14.32; IC90 (SGC-7901 cells; Homo sapiens, SGC-7901, MTT): 750 nM; IC50 (SGC-7901 cells; Homo sapiens, SGC-7901, MTT, 72 h): 340 nM; SI (selectivity index) (SGC-7901 cells; L-02 versus SGC-7901): 3.41; reduction of Ki67 expression level (IHC) (T24 xenograft; 15 mg/kg, versus control): 38.32%; expression of EGFR in tumor (IHC) (T24 xenograft; 30 mg/kg): significantly down-regulated expression of EGFR; tumor growth inhibition rate (TGI %) (T24 xenograft; 30 mg/kg, i.p., QD, two weeks, tumor volume): 52.63%; reduction of Ki67 expression level (IHC) (T24 xenograft; 30 mg/kg, versus control): 66.47%; reduction of tumor weight (T24 xenograft; 30 mg/kg, versus control): 48.57%; decrease of p-mTOR/mTOR expression level (p-mTOR/mTOR): 60.36%; decrease of p-ERK/ERK expression level (p-ERK/ERK): 96.95%; decrease of p-AKT/AKT expression level (p-AKT/AKT): 99.96%
